# Patent publication US20040126792A1, “Synthesis and applications of trinucleotide pCpCpA-3'-NH-aminoacyl derivatives” (priority 2002, published 2004)
# Columns and labels:
# [1] = test system: S30 extract peptidyltransferase; assay: Peptidyltransferase gel-shift assay in the presence of antibiotics, S30 extract; type: biochemical, E. coli; settings: 100 μM antibiotic, substrates CCA-Met-Biotin and 32P-CCA-NH-Phe, 37° C.
# Experimental: (§1) Assay reactions were carried out with: 50S or 70S subunits from the bacterial ribosome (prepared from E. coli MRE600), or S30 extract (purchased from Promega); 50 μM CCA-Met-Biotin or tRNA-Met-Biotin; trace amounts of ^32P-CCA-NH-Phe (˜0.5 nM); 100 μM antibiotic in the presence of 50 mM Tris•HCl (pH 7.5); 35 mM MgCl2; 100 mM NH4Cl; and 1000 mM KCl, at 37° C. For each reaction, the same amount of 50S or 70S (10 pmol) was included, but the S30 concentration was not determined.
# (§2) Reactions were initiated by addition of ^32P-CCA-NH-Phe. A 1-μL aliquot of the reaction mixture was removed at specific time points, quenched with 2 μL quench buffer (formamide +0.05% xylene cyanol), and loaded on 24%/7.5 M urea polyacrylamide denaturing gel.
# (§3) The substrates used in these reactions were CCA-Met-Biotin and ^32P-CCA-NH-Phe. The lower band corresponds to the labeled ^32P-CCA-NH-Phe and the top band is the dipeptide product (^32P-CCA-NH-Phe-Met-Biotin).
# [2] = test system: 70S ribosome peptidyltransferase; assay: Peptidyltransferase activity assay in the presence of antibiotics, 70S ribosome; settings: 100 μM antibiotic; 70S versus 50S
# Experimental: as §1, §2, §3
# (§4) Reaction conditions for these studies were the same as described above.
# [3] = test system: 50S ribosome peptidyltransferase; assay: Peptidyltransferase activity assay in the presence of antibiotics, 50S ribosome; settings: 100 μM antibiotic, tRNA-Met-Biotin versus CCA-Met-Biotin substrate
# Experimental: as §1
# Reactions were initiated by addition of ^32P-CCA-NH-Phe. A 1-μL aliquot of the reaction mixture was removed at specific time points, quenched with 2 μL quench buffer (formamide +0.05% xylene cyanol), and loaded on 24%/7.5 M urea polyacrylamide denaturing gel. Reaction products were quantitated with a Molecular Dynamics PhosphorImager™, and the fraction of individual product relative to total reactants was plotted against time (see FIGS. 11-14).
# as §4
structure (smiles),measurement,setting,value
O=C(N[C@H](CO)[C@H](O)c1ccc([N+](=O)[O-])cc1)C(Cl)Cl [chloramphenicol],"Inhibition of peptidyltransferase activity (gel-shift, FIG. 10A)",[1],greatly inhibited
CC[C@H]1OC(=O)[C@H](C)[C@@H](O[C@H]2C[C@@](C)(OC)[C@@H](O)[C@H](C)O2)[C@H](C)[C@@H](O[C@@H]2O[C@H](C)C[C@H](N(C)C)[C@H]2O)[C@](C)(O)C[C@@H](C)C(=O)[C@H](C)[C@@H](O)[C@]1(C)O [erythromycin],"Inhibition of peptidyltransferase activity (gel-shift, FIG. 10A)",[1],greatly inhibited
same,Inhibition of 70S reactions compared with 50S reactions,[2],much more strongly than 50S reactions
COc1ccc(C[C@H](N)C(=O)N[C@H]2[C@@H](O)[C@H](n3cnc4c(N(C)C)ncnc43)O[C@@H]2CO)cc1 [puromycin],"Inhibition of peptidyltransferase activity (gel-shift, FIG. 10A)",[1],does not significantly inhibit
same,Inhibition of 70S reactions compared with 50S reactions,[2],much more strongly than 50S reactions
CSC[S@+]([O-])C[C@H](CO)NC(=O)/C=C/c1c(C)[nH]c(=O)[nH]c1=O [sparsomycin],Effect on activity of 50S-tRNA compared with 50S-CCA,[3],much less unaffected than that of 50S-CCA
same,"Inhibition of peptidyltransferase activity (gel-shift, FIG. 10A)",[1],greatly inhibited
[H]/N=C(/N)N[C@H]1[C@H](O)[C@@H](O)[C@H](O[C@@H]2O[C@@H](C)[C@](O)(C=O)[C@H]2O[C@@H]2O[C@@H](CO)[C@H](O)[C@@H](O)[C@@H]2NC)[C@@H](N/C(N)=N\[H])[C@@H]1O [streptomycin],"Inhibition of peptidyltransferase activity (gel-shift, FIG. 10A)",[1],not inhibited
